Patent publication US8937181B2, “Benzenesulfonamide compounds and the use thereof” (Purdue Pharma L.P., priority 2006, dated 2015)

Legend:
[1] = target: T1, N-type calcium channel (NTCC) (Homo sapiens, UniProt Q00975); experiment: FLIPR calcium mobilization assay for N-type calcium channel; format: cell-based; conditions: calcium mobilization in vitro assay; differentiated IMR32 cells, 5 μM nitrendipine, 90 mM KCl
T1 construct: host or cells: IMR32 cells differentiated with dibutyryl cAMP and bromodeoxyuridine
T1 sequence (Q00975 whole entry): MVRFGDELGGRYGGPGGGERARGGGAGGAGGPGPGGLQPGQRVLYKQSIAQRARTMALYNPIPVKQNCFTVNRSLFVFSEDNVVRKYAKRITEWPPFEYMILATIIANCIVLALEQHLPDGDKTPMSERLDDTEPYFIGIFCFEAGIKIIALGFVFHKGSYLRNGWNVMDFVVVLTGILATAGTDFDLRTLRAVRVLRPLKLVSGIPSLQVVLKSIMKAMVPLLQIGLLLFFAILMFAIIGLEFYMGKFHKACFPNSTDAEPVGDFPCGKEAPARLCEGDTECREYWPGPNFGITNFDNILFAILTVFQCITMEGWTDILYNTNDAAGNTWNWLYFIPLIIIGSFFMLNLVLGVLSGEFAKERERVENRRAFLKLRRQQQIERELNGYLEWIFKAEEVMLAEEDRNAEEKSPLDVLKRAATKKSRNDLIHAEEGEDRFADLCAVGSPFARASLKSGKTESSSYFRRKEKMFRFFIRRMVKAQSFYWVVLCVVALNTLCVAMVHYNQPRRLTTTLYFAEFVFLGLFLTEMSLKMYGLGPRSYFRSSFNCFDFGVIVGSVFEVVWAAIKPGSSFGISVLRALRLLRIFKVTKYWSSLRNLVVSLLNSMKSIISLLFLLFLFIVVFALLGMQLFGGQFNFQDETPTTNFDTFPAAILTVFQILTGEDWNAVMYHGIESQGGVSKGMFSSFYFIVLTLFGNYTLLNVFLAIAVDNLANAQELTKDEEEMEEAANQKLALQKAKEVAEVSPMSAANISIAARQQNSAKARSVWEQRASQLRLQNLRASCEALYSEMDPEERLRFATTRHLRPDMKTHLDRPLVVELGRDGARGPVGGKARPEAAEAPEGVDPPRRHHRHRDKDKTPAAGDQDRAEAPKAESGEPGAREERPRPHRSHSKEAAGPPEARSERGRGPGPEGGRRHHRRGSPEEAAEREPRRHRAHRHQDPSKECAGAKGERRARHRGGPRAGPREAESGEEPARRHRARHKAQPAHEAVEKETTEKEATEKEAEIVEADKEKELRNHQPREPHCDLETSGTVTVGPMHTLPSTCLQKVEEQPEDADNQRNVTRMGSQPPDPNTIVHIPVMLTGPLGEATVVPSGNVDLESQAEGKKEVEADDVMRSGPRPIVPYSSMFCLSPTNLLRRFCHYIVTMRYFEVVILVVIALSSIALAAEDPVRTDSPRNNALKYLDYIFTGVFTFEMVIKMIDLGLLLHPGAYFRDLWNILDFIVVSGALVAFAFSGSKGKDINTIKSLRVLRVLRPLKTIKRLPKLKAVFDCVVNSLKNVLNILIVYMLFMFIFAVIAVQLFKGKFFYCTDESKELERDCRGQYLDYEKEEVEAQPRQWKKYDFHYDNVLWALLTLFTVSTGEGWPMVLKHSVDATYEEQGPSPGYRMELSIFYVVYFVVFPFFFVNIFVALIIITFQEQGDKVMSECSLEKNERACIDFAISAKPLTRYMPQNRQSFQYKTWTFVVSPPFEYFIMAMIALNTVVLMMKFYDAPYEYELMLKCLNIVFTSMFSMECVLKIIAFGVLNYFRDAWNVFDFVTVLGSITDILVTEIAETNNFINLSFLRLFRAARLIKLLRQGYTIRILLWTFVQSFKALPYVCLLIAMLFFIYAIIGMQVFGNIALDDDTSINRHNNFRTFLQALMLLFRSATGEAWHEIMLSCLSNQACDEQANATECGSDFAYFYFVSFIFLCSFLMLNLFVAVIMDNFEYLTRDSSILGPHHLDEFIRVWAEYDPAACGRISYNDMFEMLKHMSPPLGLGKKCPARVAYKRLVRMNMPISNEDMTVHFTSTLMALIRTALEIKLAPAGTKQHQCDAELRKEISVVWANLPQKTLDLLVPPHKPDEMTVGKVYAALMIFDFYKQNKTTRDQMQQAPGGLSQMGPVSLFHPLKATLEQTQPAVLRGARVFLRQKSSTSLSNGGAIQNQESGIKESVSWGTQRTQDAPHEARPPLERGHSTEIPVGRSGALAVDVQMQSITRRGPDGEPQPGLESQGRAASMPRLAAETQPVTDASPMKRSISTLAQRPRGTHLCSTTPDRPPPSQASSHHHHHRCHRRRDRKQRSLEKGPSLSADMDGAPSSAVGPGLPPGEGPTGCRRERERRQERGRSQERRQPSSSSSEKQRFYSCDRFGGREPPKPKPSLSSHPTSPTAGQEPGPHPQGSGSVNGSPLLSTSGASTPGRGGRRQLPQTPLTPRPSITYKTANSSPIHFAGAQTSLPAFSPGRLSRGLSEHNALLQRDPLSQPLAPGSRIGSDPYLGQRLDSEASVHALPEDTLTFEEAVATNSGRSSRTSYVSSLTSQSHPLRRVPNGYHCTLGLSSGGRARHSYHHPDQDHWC
T1 sequence (P54289 25-956 partner limits assumed): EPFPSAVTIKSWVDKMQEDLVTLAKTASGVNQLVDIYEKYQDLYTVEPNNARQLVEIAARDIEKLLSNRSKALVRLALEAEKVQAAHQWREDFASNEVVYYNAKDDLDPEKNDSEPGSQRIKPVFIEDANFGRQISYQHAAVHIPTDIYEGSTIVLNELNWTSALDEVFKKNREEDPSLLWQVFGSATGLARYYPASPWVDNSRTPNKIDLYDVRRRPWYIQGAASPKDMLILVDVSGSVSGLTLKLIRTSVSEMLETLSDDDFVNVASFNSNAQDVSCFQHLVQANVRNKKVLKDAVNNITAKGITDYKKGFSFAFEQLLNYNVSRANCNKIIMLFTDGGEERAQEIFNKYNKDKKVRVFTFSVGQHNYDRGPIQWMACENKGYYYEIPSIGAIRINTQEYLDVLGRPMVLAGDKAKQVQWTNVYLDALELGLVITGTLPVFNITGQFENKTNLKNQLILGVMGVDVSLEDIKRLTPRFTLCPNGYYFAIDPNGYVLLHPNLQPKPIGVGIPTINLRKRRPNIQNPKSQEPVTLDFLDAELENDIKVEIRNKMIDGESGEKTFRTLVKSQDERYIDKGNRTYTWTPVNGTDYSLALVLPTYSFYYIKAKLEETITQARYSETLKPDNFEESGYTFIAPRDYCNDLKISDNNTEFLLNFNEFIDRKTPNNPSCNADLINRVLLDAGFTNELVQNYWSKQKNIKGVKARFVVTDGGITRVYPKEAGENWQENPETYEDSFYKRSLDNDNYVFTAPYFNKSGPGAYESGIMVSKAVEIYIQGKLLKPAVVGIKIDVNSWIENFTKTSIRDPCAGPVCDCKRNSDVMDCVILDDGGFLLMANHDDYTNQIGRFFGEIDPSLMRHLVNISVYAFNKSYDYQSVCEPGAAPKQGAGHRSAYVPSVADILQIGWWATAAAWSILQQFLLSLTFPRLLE
T1 sequence (P54289 957-1103 partner limits assumed): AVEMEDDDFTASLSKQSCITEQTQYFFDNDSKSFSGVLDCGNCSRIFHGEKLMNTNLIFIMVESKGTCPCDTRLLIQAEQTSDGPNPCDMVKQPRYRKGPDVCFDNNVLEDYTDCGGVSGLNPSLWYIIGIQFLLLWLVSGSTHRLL
T1 sequence (P54284 whole entry partner): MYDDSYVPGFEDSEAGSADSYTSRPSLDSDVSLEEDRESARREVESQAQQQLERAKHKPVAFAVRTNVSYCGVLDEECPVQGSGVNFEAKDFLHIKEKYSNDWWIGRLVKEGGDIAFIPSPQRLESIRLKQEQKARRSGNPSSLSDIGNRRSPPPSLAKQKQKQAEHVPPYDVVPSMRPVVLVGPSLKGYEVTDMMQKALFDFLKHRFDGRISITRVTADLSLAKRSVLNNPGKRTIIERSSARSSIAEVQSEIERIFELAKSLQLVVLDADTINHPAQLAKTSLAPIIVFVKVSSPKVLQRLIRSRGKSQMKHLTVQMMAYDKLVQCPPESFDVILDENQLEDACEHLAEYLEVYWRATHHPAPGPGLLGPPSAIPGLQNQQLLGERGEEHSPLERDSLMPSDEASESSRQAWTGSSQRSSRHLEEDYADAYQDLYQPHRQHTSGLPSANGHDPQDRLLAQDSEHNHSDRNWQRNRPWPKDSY
Description: Unless noted otherwise, cell culture reagents were purchased from Mediatech of Herndon, Md. IMR32 cells (American Type Culture Collection, ATCC, Manassas, Va.) were routinely cultured in growth medium consisting of minimum essential medium containing 10% fetal bovine serum (FBS, Hyclone, Logan, Utah), 100 U/mL penicillin, 100 μg/mL streptomycin, 2 mM L-glutamine, 1 mM sodium pyruvate, and 1×MEM non-essential amino acids. 80-90% confluent flasks of cells were differentiated using the following differentiation medium: Growth medium plus 1 mM dibutyryl cyclic AMP (Sigma, St. Louis, Mo.), and 2.5 μM bromodeoxyuridine (Sigma). Cells were differentiated for 8 days by replacing differentiation medium every 2-3 days.
FLIPR Calcium Mobilization Assay for N-type Calcium Channel.
One day prior to performing this assay, differentiated IMR32 cells were treated with 1× CellStripper, and seeded on poly-D-lysine-coated 96-well clear-bottom black plates (Becton Dickinson, Franklin Lakes, N.J.) at 200,000 cells/well. On the day of the assay, the cell plates were washed with IMR32 buffer (127 mM NaCl, 1 mM KCl, 2 mM MgCl2, 700 μM NaH2PO4, 5 mM CaCl2, 5 mM NaHCO3, 8 mM HEPES, 10 mM glucose, pH7.4), then pre-stimulated with KCl and loaded as follows: 0.05 mL of IMR32 buffer, 0.05 mL of each compound tested diluted in IMR32 buffer containing 20 μM nitrendipine (Sigma), and 0.1 mL KCl dissolved in IMR32 buffer, plus Fluo-4 were added (3 μM final concentration, Molecular Probes, Eugene, Oreg.). Final test compound concentrations ranged from about 846 pM to about 17 μM, final nitrendipine concentration was 5 μM, and final KCl concentration was 90 mM. After 1 hour, the cells were washed twice with 0.05 mL of each compound tested in nitrendipine-containing IMR32 buffer (no KCl or Fluo-4), and then replaced with 0.1 mL of each compound tested in nitrendipine-containing IMR32 buffer. Plates were then transferred to a Fluorimetric Imaging Plate Reader (FLIPR^96, Molecular Devices, Inc., Sunnyvale, Calif.) for assay. The FLIPR measured basal Fluo-4 fluorescence for 315 seconds (i.e., 5 minutes and 15 seconds), then added 0.1 mL KCl agonist dissolved in IMR32 buffer and measured fluorescence for another 45 seconds. Final test compound concentrations on the cells after FLIPR read ranged from about 846 pM to about 17 μM, final nitrendipine concentration was 5 μM, and final KCl concentration was 90 mM. Data were collected over the entire time course and analyzed using Excel, Graph Pad Prism (version 3.02, Graph Pad, San Diego, Calif.), or an in-house non-linear regression analysis software.

[2] = target: T2, L-type calcium channel (LTCC) (Rattus norvegicus, UniProt P22002); experiment: FLIPR calcium mobilization assay for L-type calcium channel; format: cell-based; conditions: calcium mobilization in vitro assay; HEK293 cells stably expressing recombinant rat LTCC subunits (α1c, α2δ, β1), 90 mM KCl
T2 construct: The 6.5 kb cDNA encoding the L-type calcium channel α1c subunit was cloned by PCR amplification from rat heart cDNA; expressed in transfected cells
Description: Recombinant human embryonal kidney cells (HEK293, ATCC) stably transfected with either N-type calcium channel (NTCC) subunits (α1b, α2δ, and β3) or L-type calcium channel (LTCC) subunits (α1c, α2δ, and β1) were routinely cultured in growth medium consisting of Dulbecco's Modified Eagles Medium containing 10% FBS, 100 U/mL penicillin, 100 μg/mL streptomycin, 4 mM L-glutamine, 500 μg/mL geneticin (G418), 20 μg/mL Blasticidin S (InVivogen, San Diego, Calif.) and 500 μg/mL zeocin (InVivogen).
FLIPR Calcium Mobilization Assay for L-type Calcium Channel.
One day prior to performing this assay, HEK293 cells stably expressing recombinant rat L-type calcium channel (LTCC) subunits (α1c, α2δ, and β1) were trypsinized, then seeded on poly-D-lysine-coated 96-well clear-bottom black plates (Becton Dickinson, Franklin Lakes, N.J.) at 75,000 cells/well. On the day of the assay, the plates were washed with LTCC wash buffer (127 mM NaCl, 2 mM MgCl2, 700 μM NaH2PO4, 5 mM CaCl2, 5 mM NaHCO3, 8 mM HEPES, 10 mM glucose, pH7.4), then loaded with 0.1 mL of LTCC wash buffer containing Fluo-4 (3 μM final concentration, Molecular Probes, Eugene, Oreg.). After 1 hour, the cells were washed with 0.1 mL LTCC wash buffer and resuspended in 0.05 mL LTCC assay buffer (same composition as LTCC wash buffer). Plates were then transferred to a FLIPR^96 for assay. The FLIPR measured basal Fluo-4 fluorescence for 15 seconds, then added 0.05 mL of each compound tested diluted in LTCC assay buffer at final concentrations ranging from about 846 pM to about 17 μM. Fluo-4 fluorescence was then measured for 5 minutes. 0.1 mL KCl agonist dissolved in LTCC assay buffer was then added to the cells to produce a final concentration of 90 mM KCl, and fluorescence was measured for another 45 seconds. Data were collected over the entire time course and analyzed using Excel, Graph Pad Prism, or an in-house regression analysis software.

Row | IC50 [1] [µM] | IC50 [2] [µM] | Compound
1 | 1.14 |  | CC(C)N(C1CCN(C(=O)CN2Cc3ccccc3C2)CC1)S(=O)(=O)c1cccc(C(F)(F)F)c1 [Compound 25d, N-[1-(2-1,3-Dihydro-isoindol-2-yl-acetyl)-piperidin-4-yl]-N-isopropyl-3-trifluoromethylbenzenesulfonamide]
2 | 0.19 | 10 to 20 | CC(C)N(C1CCN(C(=O)CNC2CCCCC2)CC1)S(=O)(=O)c1cccc(C(F)(F)F)c1 [Compound 25a, N-[1-(2-Cyclohexylamino-acetyl)-piperidin-4-yl]-N-isopropyl-3-trifluoromethylbenzenesulfonamide]
3 | 3.98 | 7.81 | CC(C)N(C1CCN(C(=O)CN2CCC(F)(F)C2)CC1)S(=O)(=O)c1cccc(C(F)(F)F)c1 [Compound 25f, N-{1-[2-(3,3-Difluoro-pyrrolidin-1-yl)-acetyl]-piperidin-4-yl}-N-isopropyl-3-trifluoromethylbenzenesulfonamide]
4 | 3.35 |  | CC(C)N(C1CCN(C(=O)CN2CCCC(O)C2)CC1)S(=O)(=O)c1cccc(C(F)(F)F)c1 (stereo not drawn) [Compound 25b, N-{1-[2-(3-Hydroxy-piperidin-1-yl)-acetyl]-piperidin-4-yl}-N-isopropyl-3-trifluoromethylbenzenesulfonamide]
5 | 0.28 | > 20 | O=C(CNC1CCCC1)N1CCC(N(C2CC2)S(=O)(=O)c2cccc(C(F)(F)F)c2)CC1 [Compound 25c, N-[1-(2-Cyclopentylamino-acetyl)-piperidin-4-yl]-N-cyclopropyl-3-trifluoromethylbenzenesulfonamide]
6 | 0.88 | > 20 | CC(C)N(C1CCN(C(=O)CN2CCCC(F)(F)C2)CC1)S(=O)(=O)c1cccc(C(F)(F)F)c1 [Compound 25e, N-{1-[2-(3,3-Difluoro-piperidin-1-yl)-acetyl]-piperidin-4-yl}-N-isopropyl-3-trifluoromethylbenzenesulfonamide]

The remaining lines, values behind:

Row | Compound | IC50 [1] [µM] | IC50 [2] [µM]
7 | CC(C)N(C1CCN(C(=O)[C@H]2CCC[C@H]2N)CC1)S(=O)(=O)c1cccc(C(F)(F)F)c1 (racemic) [rac-N-[1-((1S,2R)-2-amino-cyclopentanecarbonyl)-piperidin-4-yl}-N-isopropyl-3-trifluoromethylbenzenesulfonamide] | 3.69 | 
8 | O=C(c1ccncc1)N1CCC(N(C2CC2)S(=O)(=O)c2cccc(C(F)(F)F)c2)CC1 [Compound 9, N-Cyclopropyl-N-[1-(pyridine-4-carbonyl)-piperidin-4-yl]-3-trifluoromethyl-benzenesulfonamide] | 8.68 | 
9 | N[C@@H]1CCC[C@@H]1C(=O)N1CCC(N(C2CC2)S(=O)(=O)c2cccc(C(F)(F)F)c2)CC1 (racemic) [Compound 5, rac-N-[1-((1S,2R)-2-Amino-cyclopentanecarbonyl)-piperidin-4-yl]-N-cyclopropyl-3-trifluoromethyl-benzenesulfonamide] | 0.29 | > 20
10 | O=C(CCN1CCC(O)CC1)N1CCC(N(C2CC2)S(=O)(=O)c2cccc(C(F)(F)F)c2)CC1 [Compound 2, N-Cyclopropyl-N-{1-[3-(4-hydroxy-piperidin-1-yl)-propionyl]-piperidin-4-yl}-3-trifluoromethyl-benzenesulfonamide] | 2.47 | 
11 | O=C(c1ccc(=O)[nH]c1)N1CCC(N(C2CC2)S(=O)(=O)c2cccc(C(F)(F)F)c2)CC1 [Compound 6, N-Cyclopropyl-N-[1-(6-oxo-1,6-dihydro-pyridine-3-carbonyl)-piperidin-4-yl]-3-trifluoromethyl-benzenesulfonamide] | 8.58 | 
12 | N[C@@H]1CCCC[C@@H]1C(=O)N1CCC(N(C2CC2)S(=O)(=O)c2cccc(C(F)(F)F)c2)CC1 (racemic) [Compound 4, rac-N-[1-((1S,2R)-2-Amino-cyclohexanecarbonyl)-piperidin-4-yl]-N-cyclopropyl-3-trifluoromethyl-benzenesulfonamide] | 0.57 | > 20
13 | Nc1ccccc1C(=O)N1CCC(N(C2CC2)S(=O)(=O)c2cccc(C(F)(F)F)c2)CC1 [Compound 11, N-[1-(2-Amino-benzoyl)-piperidin-4-yl]-N-cyclopropyl-3-trifluoromethyl-benzenesulfonamide] | 0.68 | 10 to 20
14 | O=C(CCN[C@H]1CC[C@H](O)CC1)N1CCC(N(C2CC2)S(=O)(=O)c2cccc(C(F)(F)F)c2)CC1 [Compound 3, N-Cyclopropyl-N-{1-[3-(4-hydroxy-cyclohexylamino)-propionyl]-piperidin-4-yl}-3-trifluoromethyl-benzenesulfonamide] | 3.04 | 
15 | O=C(c1ccccc1[N+](=O)[O-])N1CCC(N(C2CC2)S(=O)(=O)c2cccc(C(F)(F)F)c2)CC1 [Compound 10, N-Cyclopropyl-N-[1-(2-nitro-benzoyl)-piperidin-4-yl]-3-trifluoromethyl-benzenesulfonamide] | 0.76 | 3.06
16 | O=C(c1ccccc1NCCO)N1CCC(N(C2CC2)S(=O)(=O)c2cccc(C(F)(F)F)c2)CC1 [Compound 13, N-Cyclopropyl-N-{1-[2-(2-hydroxy-ethylamino)-benzoyl]-piperidin-4-yl}-3-trifluoromethyl-benzenesulfonamide] | 0.33 | > 20
17 | O=C(c1cccnc1)N1CCC(N(C2CC2)S(=O)(=O)c2cccc(C(F)(F)F)c2)CC1 [Compound 8, N-Cyclopropyl-N-[1-(pyridine-3-carbonyl)-piperidin-4-yl]-3-trifluoromethyl-benzenesulfonamide] | 7.25 | 
18 | O=C(c1ccccn1)N1CCC(N(C2CC2)S(=O)(=O)c2cccc(C(F)(F)F)c2)CC1 [Compound 7, N-Cyclopropyl-N-[1-(pyridine-2-carbonyl)-piperidin-4-yl]-3-trifluoromethyl-benzenesulfonamide] | 5.53 | 
